Assay [1] has as its target T1, Nuclear receptor subfamily 1 group I member 2 (Homo sapiens, UniProt O75469).
T1 sequence (O75469 whole entry): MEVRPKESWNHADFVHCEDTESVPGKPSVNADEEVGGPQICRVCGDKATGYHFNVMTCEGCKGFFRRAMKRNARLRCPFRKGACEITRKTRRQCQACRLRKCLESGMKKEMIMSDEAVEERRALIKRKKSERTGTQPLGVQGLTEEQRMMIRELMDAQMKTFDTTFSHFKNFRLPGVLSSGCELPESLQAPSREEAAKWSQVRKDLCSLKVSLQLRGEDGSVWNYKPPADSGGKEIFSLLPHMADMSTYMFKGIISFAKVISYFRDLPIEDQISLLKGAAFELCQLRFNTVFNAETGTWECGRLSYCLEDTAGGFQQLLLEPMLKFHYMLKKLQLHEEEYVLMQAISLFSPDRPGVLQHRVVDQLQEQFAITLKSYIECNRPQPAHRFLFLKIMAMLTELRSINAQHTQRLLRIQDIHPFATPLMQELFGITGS

The test system of assay [2] is THP-1. In words: Stimulation of [3H]cholesterol efflux in human THP1 foam cells loaded with ac-LDL. In kind it is functional, cell-based.
The subject of assay [3] is THP-1. Description: Stimulation of [3H]cholesterol efflux in human THP1 foam cells loaded with ac-LDL relative to TO901317. In kind it is functional.
For assay [4], the target named is Oxysterols receptor LXR-alpha (Homo sapiens, UniProt Q13133).
Another assay deals with T2, Glucocorticoid receptor (Homo sapiens, UniProt P04150).
T2 sequence (P04150 whole entry): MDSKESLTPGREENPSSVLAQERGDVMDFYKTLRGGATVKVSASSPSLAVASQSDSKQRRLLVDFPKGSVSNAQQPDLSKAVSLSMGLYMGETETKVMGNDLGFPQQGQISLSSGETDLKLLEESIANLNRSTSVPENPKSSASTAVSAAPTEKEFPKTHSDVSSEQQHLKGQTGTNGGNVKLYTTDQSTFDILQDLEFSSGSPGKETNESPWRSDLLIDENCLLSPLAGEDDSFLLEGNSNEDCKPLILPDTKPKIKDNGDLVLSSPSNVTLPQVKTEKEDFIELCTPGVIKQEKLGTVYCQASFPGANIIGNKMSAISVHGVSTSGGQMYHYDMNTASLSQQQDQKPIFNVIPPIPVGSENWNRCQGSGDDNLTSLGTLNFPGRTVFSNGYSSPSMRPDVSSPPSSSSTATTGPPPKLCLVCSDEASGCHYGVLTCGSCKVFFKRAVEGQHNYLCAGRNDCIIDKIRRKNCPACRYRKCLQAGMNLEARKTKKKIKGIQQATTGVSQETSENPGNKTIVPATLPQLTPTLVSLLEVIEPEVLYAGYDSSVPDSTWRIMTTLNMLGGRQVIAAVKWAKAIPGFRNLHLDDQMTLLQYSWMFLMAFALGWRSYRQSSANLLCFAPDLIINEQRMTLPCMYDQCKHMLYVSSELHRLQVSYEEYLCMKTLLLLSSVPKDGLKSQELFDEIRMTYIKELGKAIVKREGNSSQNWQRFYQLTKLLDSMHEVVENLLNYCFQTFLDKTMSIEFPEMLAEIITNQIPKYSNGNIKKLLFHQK
In words: Displacement of radiolabeled Dexamethasone from human glucocorticoid receptor by filter paper assay.

Assay [5] has as its system THP-1. Description: Effect on ABCA1 gene expression in human differentiated THP1 cells relative to TO901317. In kind it is functional.
The next assay deals with T3, Progesterone receptor (Homo sapiens, UniProt P06401).
T3 sequence (P06401 whole entry): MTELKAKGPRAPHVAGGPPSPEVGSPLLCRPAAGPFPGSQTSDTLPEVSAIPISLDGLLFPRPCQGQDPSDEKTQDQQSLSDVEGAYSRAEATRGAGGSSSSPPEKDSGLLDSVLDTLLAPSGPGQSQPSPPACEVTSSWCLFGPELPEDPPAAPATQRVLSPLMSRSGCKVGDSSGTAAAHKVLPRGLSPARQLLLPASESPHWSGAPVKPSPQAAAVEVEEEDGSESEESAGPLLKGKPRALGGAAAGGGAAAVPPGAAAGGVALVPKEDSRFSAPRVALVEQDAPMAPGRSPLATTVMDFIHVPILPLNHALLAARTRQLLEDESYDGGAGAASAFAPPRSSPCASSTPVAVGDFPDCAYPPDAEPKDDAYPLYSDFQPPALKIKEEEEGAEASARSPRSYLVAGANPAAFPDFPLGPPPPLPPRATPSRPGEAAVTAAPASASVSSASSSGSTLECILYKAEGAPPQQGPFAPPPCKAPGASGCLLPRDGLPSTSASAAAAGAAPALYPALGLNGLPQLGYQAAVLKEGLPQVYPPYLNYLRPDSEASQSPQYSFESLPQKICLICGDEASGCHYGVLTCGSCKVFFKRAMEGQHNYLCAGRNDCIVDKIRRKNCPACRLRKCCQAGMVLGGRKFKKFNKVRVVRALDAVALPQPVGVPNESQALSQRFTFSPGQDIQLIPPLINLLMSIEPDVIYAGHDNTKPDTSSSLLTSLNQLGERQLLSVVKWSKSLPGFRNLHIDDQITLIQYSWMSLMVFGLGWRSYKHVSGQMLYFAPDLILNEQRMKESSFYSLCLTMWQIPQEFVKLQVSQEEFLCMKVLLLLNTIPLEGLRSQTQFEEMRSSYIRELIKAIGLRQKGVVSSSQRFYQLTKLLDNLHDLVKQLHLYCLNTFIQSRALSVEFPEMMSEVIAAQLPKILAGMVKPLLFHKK
In words: Displacement of radiolabeled progesterone from human progesterone receptor by filter paper assay.

Assay [6] has as its system HepG2. Description: Effect on SREBP1c gene expression in human HepG2 cells. In kind it is functional, cell-based.
In assay [7] the target is T4, Oxysterols receptor LXR-beta (Homo sapiens, UniProt P55055).
T4 sequence (P55055 whole entry): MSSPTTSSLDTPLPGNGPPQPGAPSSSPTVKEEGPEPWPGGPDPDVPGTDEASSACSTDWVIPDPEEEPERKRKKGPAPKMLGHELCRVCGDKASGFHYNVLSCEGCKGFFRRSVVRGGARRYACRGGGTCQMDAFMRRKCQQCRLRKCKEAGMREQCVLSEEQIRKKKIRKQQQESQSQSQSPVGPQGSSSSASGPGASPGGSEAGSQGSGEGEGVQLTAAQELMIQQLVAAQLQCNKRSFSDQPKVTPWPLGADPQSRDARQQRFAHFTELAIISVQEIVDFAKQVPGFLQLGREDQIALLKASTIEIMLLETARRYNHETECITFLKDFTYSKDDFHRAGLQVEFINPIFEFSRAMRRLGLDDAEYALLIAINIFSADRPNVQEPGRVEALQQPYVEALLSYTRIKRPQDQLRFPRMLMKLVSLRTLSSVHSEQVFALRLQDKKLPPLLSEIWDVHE
Description: Agonist activity at human recombinant LXRbeta ligand binding domain in human HuH7 cells co-transfected with fused Gal4-DBD by transactivation assay. In kind it is cell-based, Huh-7.

The subject of assay [8] is THP-1. In words: Effect on ABCA1 gene expression in human differentiated THP1 cells. In kind it is functional, cell-based.
Assay [9] has as its system HepG2. In words: Effect on triglyceride accumulation in human HepG2 cells relative to TO901317. In kind it is functional.
Assay [10] addresses T4, Oxysterols receptor LXR-beta.
Assay [11] deals with HepG2. In words: Effect on triglyceride accumulation in human HepG2 cells. In kind it is functional, cell-based.

For orientation: IC50 means the point on the concentration scale where inhibition reaches its midpoint. A lower IC50 goes with higher potency. One may read the EC50 as the midpoint of the concentration-response curve.

With `Fc1ccc(-c2c3cccc(C(F)(F)F)c3nn2Cc2ccccc2F)cc1`, the IC50 in [1] is 2160 nM; in assay [4], 248 nM; at Glucocorticoid receptor, 7200 nM; at Progesterone receptor, over 10000 nM; in assay [10], 33 nM. For the same compound, the EC50 in the assay on THP-1 [2] was determined as 549 nM; in the assay with HepG2 [6], 1220 nM; in assay [7], 4150 nM; in the assay with THP-1 [8], 551 nM; in the assay on HepG2 [11] it was 998 nM. For the same compound, the Efficacy with THP-1 [3] is recorded as 132%; in the assay with THP-1 [5], 89%; with HepG2 [9], 38%.

`Fc1ccc(-c2c3cccc(C(F)(F)F)c3nn2Cc2ccc(F)cc2Cl)cc1` [LXR-623]: the IC50 in [1] was 1770 nM; in [4] it was 179 nM; on Glucocorticoid receptor, 1000 nM; on Progesterone receptor, over 1000 nM; in assay [10], 24 nM. Besides, the EC50 is 1280 nM in the assay on THP-1 [2]; 2110 nM in the assay on HepG2 [6]; 3670 nM in assay [7]; 541 nM in the assay with THP-1 [8]; 1910 nM with HepG2 [11]. For the same compound, the Efficacy with THP-1 [3] is reported as 140%; with THP-1 [5], 100%; with HepG2 [9] it was 35%.

The record behind these values is ChEMBL document CHEMBL1152299, “Indazole-based liver X receptor (LXR) modulators with maintained atherosclerotic lesion reduction activity but diminished stimulation of hepatic triglyceride synthesis” (J Med Chem, 2008).
